In PubChem BioAssay AID2060503 (Molecular Pharmacology Branch, DTP, NCI, 2025):

Test system: 817829-284-R-J1-PDC complex spheroids, viability
Assay: Anticancer human tumor 817829-284-R-J1-PDC patient-derived colon adenocarcinoma cell line growth inhibition [GQUAD]
Conditions: for IC50: curve of first compound; for viability, T/C: stronger effect = lower value
From the text: DNA G-quadruplex Stabilizer Agents in Combinations in Complex Spheroids
A high-throughput screen of multi-cell type tumor spheroids was designed to identify active combinations of DNA G-quadruplex stabilizer agents and targeted small molecules. Complex spheroids include a stromal component modeled by human endothelial cells (HUVEC) and fibroblasts modeled by human mesenchymal stem cells (MSCs). The concentration ranges selected for each drug and investigational agent were based upon clinically achievable concentrations if the clinical Cmax of the agent was known.
Compounds. The drugs and investigational agents: pidnarulex (CX-5461; NSC782164), APTO-253 (NSC789042), BRACO-19 (NSC847499), peposertib (NSC802822), ceralasertib (NSC780249), elimusertib (NSC800525), camonsertib (NSC841442), AZD-1390 (NSC803789), olaparib (NSC753686), talazoparib (NSC767125), ART-558 (NSC835418), sotorasib (NSC818433), MRTX-1133 (NSC836407), SN-38 (NSC673596), topotecan (NSC609699), etoposide (NSC141540), doxorubicin (NSC123127), gemcitabine (NSC613327), 5-fluorouracil (NSC19893), paclitaxel (NSC125973), vemurafenib (NSC761431), panobinostat (NSC761190), R-306465 (JNJ-16241199; NSC773264), adavosertib (NSC754352), TP-3654 (NSC805149), carboplatin (NSC241240), KSQ-4279 (NSC840948), and staurosporine (NSC755774) were obtained from the National Cancer Institute (NCI) Developmental Therapeutics Program Chemical Repository (34). The FDA-approved anticancer drug set is available from the NCI Developmental Therapeutics Program. […] The stock solutions were prepared in dimethyl sulfoxide (DMSO, Sigma-Aldrich, St. Louis, MO, cat. D2650) at 800-fold the tested concentration and stored at -70 degrees C prior to their use. All drugs and investigational agents were tested over a range starting from a high concentration at or near the clinical Cmax and decreasing in half-log increments. If the clinical Cmax for an agent had not been determined, the highest concentration tested was 10 microM.
2.3 Cell Culture. All cells were maintained in an incubator at 37 degrees C and 5% CO2 with 95% humidity. The PDC lines were cultured according to standard operating procedures established by the NCI PDMR. All PDCs were thawed and cultured in Matrigel-coated flasks prepared with a working solution of 1X Ham's F-12 nutrient mix, without supplementation (Invitrogen, cat. 11765054), 100 U/mL penicillin-streptomycin (Invitrogen, cat. 15140122), and 2.5% Matrigel (Corning Inc., cat. 354248) for the first three passages. The 857933-349-R-J2-PDC line was cultured in 6C/Colon 1B media, which includes advanced DMEM/F-12 (Thermo Fisher Scientific, cat. 12634028), 10 mM HEPES (Thermo Fisher Scientific, cat. 15630080), 1X GlutaMAX supplement (Thermo Fisher Scientific, cat. 35050061), 0.1 mg/mL primocin (InvivoGen, cat. ant-pm-2), 10% defined fetal bovine serum, heat inactivated (HyClone Laboratories Inc., cat. SH30070.03HI), 50% L-WRN conditioned media (ATCC, cat. CRL-3276), 1.25 mM N-Acetyl-L-cysteine (Sigma-Aldrich, cat. A9165), 10 mM nicotinamide (Sigma-Aldrich, cat. N0636), 1X B-27 supplement (Thermo Fisher Scientific, cat. 17504044), 1X N-2 supplement (Thermo Fisher Scientific, cat. 17502048), 10 microM Y-27632 dihydrochloride (Tocris Bioscience, cat. 1254), and 50 ng/mL human EGF recombinant protein (Thermo Fisher Scientific, cat. PHG0311). The 485176-168-R4-J1-PDC line was cultured in Panc media, which includes all 6C/Colon 1B media components plus 100 ng/mL human FGF-10 (Thermo Fisher Scientific, cat. 100-26), 500 nM SB-431542 (Selleckchem, cat. S1067), and gastrin (Tocris, cat. 3006).
[…]

[1] = second compound 0.0316 µM, first compound 0.0316 µM
[2] = second compound 0.0316 µM, first compound 0.1 µM
[3] = second compound 0.0316 µM, first compound 0.316 µM
[4] = second compound 0.0316 µM, first compound 1 µM
[5] = second compound 0.0316 µM, first compound 3.16 µM
[6] = second compound 0.0316 µM, first compound 10 µM
[7] = second compound 0.1 µM, first compound 0.0316 µM
[8] = second compound 0.1 µM, first compound 0.1 µM
[9] = second compound 0.1 µM, first compound 0.316 µM
[10] = second compound 0.1 µM, first compound 1 µM
[11] = second compound 0.1 µM, first compound 3.16 µM
[12] = second compound 0.1 µM, first compound 10 µM
[13] = second compound 0.316 µM, first compound 0.0316 µM
[14] = second compound 0.316 µM, first compound 0.1 µM
[15] = second compound 0.316 µM, first compound 0.316 µM
[16] = second compound 0.316 µM, first compound 1 µM
[17] = second compound 0.316 µM, first compound 3.16 µM
[18] = second compound 0.316 µM, first compound 10 µM
[19] = second compound 1 µM, first compound 0.0316 µM
[20] = second compound 1 µM, first compound 0.1 µM
[21] = second compound 1 µM, first compound 0.316 µM
[22] = second compound 1 µM, first compound 1 µM
[23] = second compound 1 µM, first compound 3.16 µM
[24] = second compound 1 µM, first compound 10 µM
[25] = second compound 3.16 µM, first compound 0.0316 µM
[26] = second compound 3.16 µM, first compound 0.1 µM
[27] = second compound 3.16 µM, first compound 0.316 µM
[28] = second compound 3.16 µM, first compound 1 µM
[29] = second compound 3.16 µM, first compound 3.16 µM
[30] = second compound 3.16 µM, first compound 10 µM
[31] = second compound 10 µM, first compound 0.0316 µM
[32] = second compound 10 µM, first compound 0.1 µM
[33] = second compound 10 µM, first compound 0.316 µM
[34] = second compound 10 µM, first compound 1 µM
[35] = second compound 10 µM, first compound 3.16 µM
[36] = second compound 10 µM, first compound 10 µM
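Note: spheroids exposed to agents for 7 days before readout.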
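Throughout, for viability, T/C: percent viability relative to DMSO vehicle control taken as 100%.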

CC1COCCN1c1cc(-c2ccnn2C)c2ccnc(-c3ccn[nH]3)c2n1 (centres undefined) + CN(C)c1ccc(Nc2c3ccc(NC(=O)CCN4CCCC4)cc3nc3cc(NC(=O)CCN4CCCC4)ccc23)cc1
IC50 (second compound 0.0316 µM): < 31.6 nM | IC50 (second compound 0.1 µM): < 31.6 nM | IC50 (second compound 0.316 µM): < 31.6 nM | IC50 (second compound 1 µM): < 31.6 nM | IC50 (second compound 3.16 µM): < 31.6 nM | IC50 (second compound 10 µM): < 31.6 nM | viability, T/C [1]: 49.1% | viability, T/C [2]: 21.1% | viability, T/C [3]: 10.9% | viability, T/C [4]: 7.46% | viability, T/C [5]: 6.76% | viability, T/C [6]: 6.4% | viability, T/C [7]: 43.7% | viability, T/C [8]: 19.4% | viability, T/C [9]: 9.94% | viability, T/C [10]: 7.09% | viability, T/C [11]: 6.81% | viability, T/C [12]: 5.85% | viability, T/C [13]: 41.3% | viability, T/C [14]: 20.7% | viability, T/C [15]: 9.46% | viability, T/C [16]: 9.2% | viability, T/C [17]: 6.26% | viability, T/C [18]: 5.57% | viability, T/C [19]: 45.9% | viability, T/C [20]: 19.1% | viability, T/C [21]: 9.31% | viability, T/C [22]: 8.05% | viability, T/C [23]: 7.11% | viability, T/C [24]: 5.77% | viability, T/C [25]: 36.6% | viability, T/C [26]: 16.5% | viability, T/C [27]: 9.69% | viability, T/C [28]: 9.19% | viability, T/C [29]: 7.57% | viability, T/C [30]: 5.75% | viability, T/C [31]: 25% | viability, T/C [32]: 16.9% | viability, T/C [33]: 8.98% | viability, T/C [34]: 6.93% | viability, T/C [35]: 5.14% | viability, T/C [36]: 3.02%

CC1COCCN1c1cc(C2(S(C)(=N)=O)CC2)nc(-c2ccnc3[nH]ccc23)n1 (centres undefined) + CN(C)c1ccc(Nc2c3ccc(NC(=O)CCN4CCCC4)cc3nc3cc(NC(=O)CCN4CCCC4)ccc23)cc1
IC50 (second compound 0.0316 µM): 584 nM | IC50 (second compound 0.1 µM): 616 nM | IC50 (second compound 0.316 µM): 589 nM | IC50 (second compound 1 µM): 566 nM | IC50 (second compound 3.16 µM): 569 nM | IC50 (second compound 10 µM): 391 nM | viability, T/C [1]: 94.2% | viability, T/C [2]: 93.2% | viability, T/C [3]: 75.4% | viability, T/C [4]: 27.5% | viability, T/C [5]: 11.2% | viability, T/C [6]: 7.5% | viability, T/C [7]: 90.1% | viability, T/C [8]: 95.4% | viability, T/C [9]: 82.3% | viability, T/C [10]: 26.4% | viability, T/C [11]: 11.1% | viability, T/C [12]: 7.72% | viability, T/C [13]: 99% | viability, T/C [14]: 96.5% | viability, T/C [15]: 79.8% | viability, T/C [16]: 24.7% | viability, T/C [17]: 9.67% | viability, T/C [18]: 7.15% | viability, T/C [19]: 86% | viability, T/C [20]: 98.5% | viability, T/C [21]: 76% | viability, T/C [22]: 24.1% | viability, T/C [23]: 10.8% | viability, T/C [24]: 7.23% | viability, T/C [25]: 91.4% | viability, T/C [26]: 94.9% | viability, T/C [27]: 70.1% | viability, T/C [28]: 29.9% | viability, T/C [29]: 13% | viability, T/C [30]: 7.64% | viability, T/C [31]: 99.6% | viability, T/C [32]: 87.9% | viability, T/C [33]: 57.1% | viability, T/C [34]: 20.3% | viability, T/C [35]: 9.51% | viability, T/C [36]: 5%
